Assay results taken from patent US10576082B2, “ErbB2 regulates autophagic flux to modulate the proteostasis of APP-CTFs in alzheimer's disease” (Academia Sinica, priority 2016, dated 2020).

Tests used:
[1] = test system: IMR32 neuroblastoma cells overexpressing C99-YFP; assay: Western blotting of IMR32 cells overexpressing C99-YFP; format: cell-based, human; conditions: compound 1 μM, 37° C., 24 h
Experimental: (A) IMR32 cells overexpressing C99-YFP were grown with 2 ml fresh culture medium in 6-well plates, and treated with 1 μM CL-387,785 or DAPT at 37° C. for 24 h. The cell extracts were analyzed by Western blotting. (B) Conditional media were harvested and processed for determination of secreted Aβ40 using a colorimetric Aβ40-specific ELISA kit. (C) C99-YFP-expressing IMR32 cells (160,000 cells/well) were seeded onto 6-well plates and cultured at 37° C. for 24 h, and infected with ErbB1- or ErbB2-targeting shRNA lentivirus for an additional 48 h. Infection mixtures were replaced with 2 ml fresh culture medium, and infected cells were then incubated at 37° C. for an additional 24 h. The cell extracts were analyzed by Western blotting with anti-GFP antibody. (D) The conditioned media were harvested and processed for determination of secreted Aβ40. Data are the mean±SD from three independent experiments, and were analyzed by Student's t-tests. * p<0.05. […]
Preparation of cell extracts. […] Following the removal of cell debris by centrifugation, clarified lysates were processed for immunoprecipitation, Western blotting, or quantification of BCA protein content.
Western blotting analysis. Protein concentration was measured with the BCA Protein Assay Kit (Pierce). […] Quantitative analyses of blot images were processed using Image J software (NIH) to determine the relative densities of immunoreactive bands.

[2] = test system: HEK293 cells overexpressing C99-YFP; assay: Secreted Aβ40 ELISA, conditional media of HEK293 cells overexpressing C99-YFP; format: cell-based; conditions: 1 μM, 37° C., 24 h
Experimental: Clarified lysates containing equivalent amounts of proteins were analyzed by Western blotting. (B, C) HEK293 overexpressing CFP-LC3 cells were infected with lentivirus encoding shRNA targeting LacZ ErbB2, or ErbB2 plus ATG5 for 48 h. The autophagy induction was analyzed by fluorescence confocal microscopy. The number of CFP-LC3 puncta per cell was quantified. The levels of LC3-I, LC3-II, and GAPDH were analyzed by Western blotting. (D, E) HEK293 cells overexpressing ErbB1, ErbB2, CFP-tagged C99, and YFP-tagged NΔE were infected with lentivirus encoding shRNA targeting LacZ (Ctrl), ErbB1, or ErbB2 for 48 h. […] The levels of LC3-1, LC3-II, and p62 were analyzed by Western blotting and quantified by NIH Image J. Conditional media were harvested and processed for determination of secreted Aβ40 using a colourimetric Aβ40-specific ELISA kit. […] The quantitative data are shown as mean±SD from three independent experiments, and were analyzed by Student's t-tests. * p<0.05.
Cell-based γ-secretase assays for the nuclear function of AICD or NICD. […] Cellular luminescence was determined by the addition of Steady-Glo Luciferase Assay reagents (PROMEGA™), according to the manufacturer's instructions. […] The level of secreted Aβ40 was quantified using a human Aβ40 sandwich ELISA kit (Invitrogen) according to the manufacturer's instructions.

[3] = test system: zebrafish embryos expressing GFP-tagged C99; assay: Phenotype of C99-expressing zebrafish embryos (curved trunk, Notch-dependent somite development); format: in vivo; conditions: treated from 48 hpf to 72 hpf, scored at 72 hpf, n=90

SMILES: CC#CC(=O)Nc1ccc2ncnc(Nc3cccc(Br)c3)c2c1 [CL-387,785, N-[4-[(3-bromophenyl)amino]-6-quinazolinyl]-2-butynamide]
- level of AICD [1]: significantly reduced
- level of C99 [1]: significantly reduced
- secreted Aβ40 production [2]: effectively decreased
- embryo phenotype (trunk, tail, pigmentation; developmental defects) [3]: all but one CL-387,785-treated embryos exhibited wild-type trunks and tails with normal pigmentation
